# According to paper PMC10667816, “A Cell‐Penetrant Peptide Disrupting the Transcription Factor CP2c Complexes Induces Cancer‐Specific Synthetic Lethality” (Advanced Science, 2023):
# *1 amine or outer side, *2 acyl side, *3 side chain or, on linkers, in order; H or OH if unused. Where a SMILES comes first, the peptide text is derived from it. Side-chain parts run from the residue outwards. The star is where a group is joined. γGlu = O=C(O)[C@H](CCC(=O)[*:2])N[*:1]; Palmitoyl = CCCCCCCCCCCCCCCC(=O)*
# Tests used:
# [1] = tested on: diethylnitrosamine (DEN)‐induced orthotopic liver cancer; test: DEN‐induced orthotopic liver cancer mouse model; assay type: in vivo; settings: administered at five‐day intervals, C57BL/6 mice
# [2] = In vivo pharmacokinetics test; settings: plasma; male CD‐1 (ICR) mouse, single intravenous 5 mg kg^−1, sampled 0.033–48 h, peripheral blood, noncompartmental analysis (Phoenix WinNonlin 6.3)
# Experimental: A pharmacokinetics study was conducted at WuXiAppTec., Ltd. In this study, male CD‐1 (ICR) mouse was given a single intravenous injection of 5 mg kg^−1 of ACP52CGK. Blood samples were collected prior to dosing on day 0 and at various time points, including 0.033, 0.083, 0.25, 0.5, 1, 2, 6, 12, 24, and 48 h after dosing. The data collected from these samples were used to calculate pharmacokinetic parameters using the IV‐noncompartmental analysis model 201 in Phoenix WinNonlin version 6.3.
# Figure S23. Pharmacokinetics analysis of ACP52CGK
# A) PK parameters of ACP52CGK in CD-1(ICR) mice, calculated using the noncompartmental analysis
# model 201 of Phoenix WinNonlin version 6.3. B) Mean plasma concentration of ACP52CGK at 0.033,
# [3] = tested on: normal male and female mice; test: In vivo toxicity test of ACP52C; design: species or system mouse; settings: ICR mice, 100 or 1000 mg kg^−1 intravenously, once or twice with four‐day interval; H&E of major organs
# Experimental: To assess the toxicity of ACP52C, twelve 6‐weeks‐old ICR mice (six males and six females) were divided into three groups, each containing two mice: one group received a saline, another received 100 mg kg^−1 of ACP52C, and the third received 1000 mg kg^−1 of ACP52C. For each group, one mouse was intravenously injected once, and the other one was intravenously injected twice with a four‐day interval between injections. At the time of sacrifice, major organs were analyzed by H&E staining. To assess the repeated toxicity of ACP52CGK, twenty‐four 6‐weeks‐old ICR mice (twelve males and twelve females) were used, dividing them into two groups of six mice each: one group received saline, and the other received 100 mg kg^−1 of ACP52CGK. […] Body weight, water and feed consumption were measured every 3 days after injection. […] Major organs were weighed and analyzed by H&E staining. H&E‐stained tissue sections were analyzed and photographed, and the representative histological images were recorded. […]
# A-C) Anticancer effects of ACP52C in xenograft model mice. […] Data are expressed as means ± SD, and the number […]
# effective tumor targeting. […] The estimated residual levels of Cy5-ACP52C in the body over time were determined by quantifying the fluorescence intensity of images (right). RL50 represents the required time for a 50% retention of fluorescence level. (F) Bright field and fluorescence images of the […]
# [4] = tested on: ACP52C‐resistant cancer cell lines; test: Growth inhibition of resistant cells with CASP2 inhibition; assay type: cell-based, human; settings: combined with CASP2 inhibiting peptide Ac‐VDVAD‐CHO (10 µM)
# Experimental: Various cell lines were treated with peptides, either alone or in combination with the CASP2 inhibitor (Ac‐VDVAD‐CHO; Enzo ALX‐260‐058‐M001) at various concentrations for 4 days. Cell viability was assessed on day 2 or day 4 using MTT (3‐(4,5‐dimethylthiazol‐2‐yl)‐2,5‐diphenyltetrazolium bromide; Sigma–Aldrich, M2128) assay. In brief, fresh cells were seeded in flat‐bottomed 96‐well tissue culture plates at appropriate concentrations for each cell line per well using complete culture medium. The cells were incubated in 100 µL of culture medium containing various concentration of chemicals or peptides at 37 °C for 0 to 96 h. A solution of MTT (5 mg mL^−1) was added to the culture medium, and the cells were further incubated at 37 °C for an additional 3 h. The MTT medium was then removed, and the formazan crystals were dissolved in DMSO (100 µL per well). The formazan concentration was measured spectrophotometrically at 490 nm using a Varioskan Flash Spectral Scanning Multimode Reader (Thermo Scientific Korea). Nonlinear regression curves for growth inhibition and GI50 values for each cell line were estimated from independent replicates using the Prism (version 6) software (GraphPad Software Inc.)
# [5] = tested on: hepatocellular carcinoma and breast cancer patient‐derived cancer cells; test: Sensitivity of patient‐derived cancer cells; assay type: cell-based, human; settings: preliminary data
# Experimental: For primary cell culture, tumor tissue samples obtained from patients undergoing surgery were finely minced, washed with phosphate buffered saline (PBS) containing penicillin/streptomycin, and then treated with trypsin solution at 37 °C for up to 20 min. The resulting cell suspension was filtered through a strainer (BD Falcon, 352235). The filtered cells were maintained in EpiX media, which consists of keratinocyte serum free medium (KSFM; Gibco, 17005042) supplemented with 50 µg mL^−1 bovine pituitary extract (Gibco, 13028014), 5 ng mL^−1 human epidermal growth factor (EGF; Thermo Fisher, PHG0311L), 1 µM TGF beta inhibitor (A83‐01; Sigma–Aldrich, SML0788), 5 µM ROCK inhibitor (Y27632; Sigma–Aldrich, Y0503), and 3 µM isoproterenol (Sigma–Aldrich, I6504). The culture medium was refreshed daily. For organoid culture, portions of human tissue samples were separated and transported to the laboratory on ice within 1 h of removal from the patients in cold Hank's balanced salt solution (HBSS) with antibiotics. […]
Compound,anti‐tumor efficacy [1],half-life [2],adverse side effects [3],sensitization by combined treatment [4],fraction of patient‐derived cancer cells showing sensitivity [5]
CCCCCCCCCCCCCCCC(=O)N[C@@H](CCC(=O)NCCCC[C@H](NC(=O)CNC(=O)CNC(=O)[C@@H]1CCCN1C(=O)[C@H](CCCNC(=N)N)NC(=O)[C@H](CCC(N)=O)NC(=O)[C@@H]1CCCN1C(=O)[C@H](Cc1ccc(O)cc1)NC(=O)[C@H](CC(N)=O)NC(C)=O)C(=O)NCC(=O)NCC(=O)N[C@@H](CS)C(=O)N[C@@H](CCCNC(=N)N)C(=O)NCC(=O)N[C@@H](CC(=O)O)C(=O)N[C@@H](CCCCN)C(=O)NCC(=O)N1CCC[C@H]1C(=O)N[C@@H](CC(=O)O)C(=O)N[C@@H](CS)C(N)=O)C(=O)O [ACP52CGK] (Ac-NYPQRPGGK([γGlu-Palmitoyl])GGCRGDKGPDC-NH2),remarkable anti‐tumor efficacy,~5.26 h,,,
CC(=O)N[C@@H](CC(N)=O)C(=O)N[C@@H](Cc1ccc(O)cc1)C(=O)N1CCC[C@H]1C(=O)N[C@@H](CCC(N)=O)C(=O)N[C@@H](CCCNC(=N)N)C(=O)N1CCC[C@H]1C(=O)N[C@@H](CS)C(=O)N[C@@H](CCCNC(=N)N)C(=O)NCC(=O)N[C@@H](CC(=O)O)C(=O)N[C@@H](CCCCN)C(=O)NCC(=O)N1CCC[C@H]1C(=O)N[C@@H](CC(=O)O)C(=O)N[C@@H](CS)C(N)=O [ACP52C] (Ac-NYPQRPCRGDKGPDC-NH2),,,did not exhibit any adverse side effects,sensitized ACP52C‐resistant cancer cell lines,over 85%
